Measured values as given in ChEMBL document CHEMBL3988442, “University of Dundee, Small-Polar-MMV Screening Library” (2021).
Several values for one entry are separate records, joined by “and”; a condition that tells them apart may be missing. Equal values may be shown once.

Key:
[1] = microbe, parasite or virus in culture; conditions: Mycobacterium tuberculosis, 96 h, read-out: pIC50 (converted)
[2] = microbe, parasite or virus in culture; conditions: Mycobacterium tuberculosis, 72 h, read-out: pIC50 (converted)
Wolbachia pipientis = assay: Anti-Wolbachia Cell-Based Screen; assay type: functional; conditions: for IC50: Wolbachia pipientis

Row | SMILES | IC50 [1] [µM] | IC50 [2] [µM] | pIC50 (Wolbachia pipientis) | IC50 (Wolbachia pipientis) [µM]
1 | Cc1csc(CN(C)c2cc(C)nc3c(C)c(C)nn23)n1 | 25.5 | 37.9 | 5.234 | 6.27
2 | CO[C@H]1CCN(c2nnc(C)s2)C[C@@H]1Cc1ccccc1.O=C(O)C(F)(F)F | 15.7 | 40.3 | 5.449 | 3.77
3 | Cc1ccc(-c2nc(CN3CCn4c(C)nnc4C3)cs2)o1 | – | – | – | > 10
4 | CCC(C)n1cnc(S(=O)(=O)N(Cc2cccnc2)C(C)C)c1 (stereo not drawn) | – | – | – | > 10
5 | Cc1nc(N2CCC3(CCOC3)C2)c2cc[nH]c2n1 (stereo not drawn) | – | – | 5.537 | 2.38
6 | O=C(Nc1ccccn1)NC(CCCO)c1ccccc1 (stereo not drawn) | – | – | < 5 | 6.17
7 | CN(C)c1cc(CNCc2ccc(N3CCOCC3)cc2)ccn1 | – | – | – | > 10
8 | CC1(C(=O)N2CCN(c3ncccn3)CC2)CNCCO1 (stereo not drawn) | – | – | – | > 10
9 | CC(C)Cn1ncc2cc(C(=O)N(C)Cc3cccc(O)c3)cnc21 | – | – | – | > 10
10 | CN1CCC/C1=N\S(=O)(=O)c1ccc(NC(=O)c2ccc(Cl)s2)cc1 | – | – | – | > 10
11 | CCOCCCC(=O)NCc1ccc(N2CCCCC2)cc1 | – | – | – | > 10
12 | c1cnnc(N2CCCC2CNCc2csc(-c3ccco3)n2)c1 (stereo not drawn) | – | – | – | > 10
13 | CCn1c(CNC(=O)Nc2nc(C)c(C)o2)nc2ccccc21 | – | – | 5.724 | 1.91
14 | CC(C)[C@@H]1CN(C2CCN(Cc3ccccc3)CC2)C[C@H]1NS(C)(=O)=O | – | – | 5.381 | 3.75
15 | CCc1cc(N(C)Cc2cc[nH]n2)n2nc(C)c(C)c2n1 | – | – | 5.579 | 4.79
16 | CCc1sc(C(=O)NC2CC2)cc1C | – | – | – | > 10
17 | Cc1ccc(CSc2nc(N)cc(NCCS(=O)(=O)N(C)C)n2)cc1 | – | – | 5.214 | 4.21
18 | COc1ccc(Br)c(C(=O)NCC2CC2)c1 | – | – | – | > 10
19 | CCOCCCn1c(NC(=O)c2cnc(C)s2)nc2ccccc21 | – | – | – | > 10
20 | COc1ccccc1OCCN(C)c1cc(C)nc(N)n1 | – | – | – | > 10
21 | Cc1ccc(C(=O)N2CCC3(CC2)CN(CCN(C)C)C(=O)O3)c(F)c1 | – | – | 5.079 | > 10
22 | O=C(NCCCn1cncn1)N1CCCCCC1 | – | – | – | > 10
23 | O=c1oc(-c2cccs2)nn1CC(O)c1ccc2c(c1)CCC2 (stereo not drawn) | – | – | – | > 10
24 | Cc1cnn(CC2CCCCN2C(=O)c2ccc(CN(C)C)cc2)c1 (stereo not drawn) | – | – | – | > 10
25 | CN(C)C(=O)[C@H]1C[C@@H]2CN(S(=O)(=O)Cc3ccccc3)C[C@H]1O2 | – | – | – | > 10
26 | CCN(CC)C(=O)c1ccc(Cl)c(NC(=O)c2cc[nH]n2)c1 | – | – | 5.355 | 3.96

Row | SMILES | IC50 [1] [µM] | IC50 [2] [µM] | pIC50 (Wolbachia pipientis) | IC50 (Wolbachia pipientis) [µM]
27 | NS(=O)(=O)c1cnn(CCC(=O)N(Cc2ccccc2)C2CC2)c1 | – | – | – | > 10
28 | COc1cc(CNC(=O)c2csc(Br)c2)ccn1 | – | – | 5.03 | 5.94
29 | CCOc1ncccc1C(=O)N1CCCC1c1c(C)nn(C)c1OC (stereo not drawn) | – | – | – | > 10
30 | FC(F)(F)c1nc(NC2CCCCC2)c2ccccc2n1 | – | – | 5.146 and 5.539 | –
31 | CC(c1ccco1)N(C)Cc1cccc(C(=O)Nc2nccn2C)c1 (stereo not drawn) | – | – | 5.538 | 3.77
32 | Cc1nn(C)c2nc(N3CCCCC3c3ccc(F)cc3)sc12 (stereo not drawn) | – | – | 5.674 | 2.24
33 | Cc1ccccc1C1CN(c2cnn(C)c(=O)c2Cl)CCO1 (stereo not drawn) | – | – | 5.107 | 7.69
34 | Cc1ccc(F)c2c1N(C(=O)Cc1c(C)nn(C)c1C)CCC2 | – | – | 5.021 | 8.03
35 | Cc1c(CNCC(C)Oc2cccnc2)c2ccccc2n1CC(N)=O (stereo not drawn) | – | – | – | > 10
36 | O=C1O[C@@H]2CN(C3CCOCC3)C[C@@H]2N1CCCc1ccc(F)cc1 | – | – | – | > 10
37 | CC1CCCN1Cc1cccc(C(=O)Nc2ccc3c(c2)CCC3=O)c1 (stereo not drawn) | – | – | – | > 10
38 | CN(CCc1ccccc1)Cc1cc(C(=O)N2CCN(C)C(=O)C2)no1 | – | – | – | > 10
39 | CC(C)C(=O)Nc1ccc(C(O)Cn2nc(-c3cccs3)oc2=O)cc1 (stereo not drawn) | – | – | – | > 10
40 | Cc1nn(C)c(C)c1C1CCCN1Cc1nc2ccccc2o1 (stereo not drawn) | – | – | 5.128 | > 10
41 | CC(C(=O)N1CCCN(Cc2ccc(C#N)cc2)CC1)n1cncn1 (stereo not drawn) | – | – | – | > 10
42 | O=C(CCc1ccc(Cl)s1)N1CCC(N2CCNC2=O)CC1 | – | – | – | > 10
43 | CC(C)Cc1cc(C(=O)NCC2CCCN(Cc3ccco3)C2)on1 (stereo not drawn) | – | – | 5.687 | 1.41
44 | CN(C)c1ncc(I)c(C2CCCCN2S(C)(=O)=O)n1 (stereo not drawn) | – | – | – | > 10
45 | O=C(CC1CC1)NCc1cc(=O)n2c(n1)CN(Cc1ccoc1)CCC2 | – | – | – | > 10
46 | CCCS(=O)(=O)N1CCN(c2cc(-n3nc(C)cc3C)nc(C)n2)CC1 | – | – | – | > 10
47 | NC(=O)C1CCN(c2nc3nccc(-c4ccccn4)c3c(=O)[nH]2)CC1 | – | – | – | > 10
48 | c1cc(CN2CCc3cncnc3C2)c2c(c1)OCCO2 | – | – | 5.26 | > 10
49 | Cn1nccc1C(=O)N1CCCC2(CCN(c3ccsc3)C2=O)C1 (stereo not drawn) | – | – | – | > 10
50 | O=C(Nc1ccnc(OC2CCOC2)c1)c1ccccc1Cl (stereo not drawn) | – | – | 5.461 and 5.05 | –
51 | Cc1cc(NC(=O)CN2CCn3c(nnc3C3CC3)C2)on1 | – | – | – | > 10
52 | CCc1cc(C(=O)N2CCC3(CCCN(CC4CC4)C3=O)C2)cs1 (stereo not drawn) | – | – | – | > 10

Row | SMILES | IC50 [1] [µM] | IC50 [2] [µM] | pIC50 (Wolbachia pipientis) | IC50 (Wolbachia pipientis) [µM]
53 | CC(=O)N(Cc1noc(C2CC2)n1)C1CCN(Cc2cccnc2)C1 (stereo not drawn) | – | – | – | > 10
54 | Cc1n[nH]c(C)c1CCC(=O)N(C)Cc1cn[nH]c1-c1ccc(F)cc1 | – | – | 5.21 | 5.81
55 | Cn1ccnc(Nc2ccc3c(c2)CCN3C(=O)c2ccoc2)c1=O | – | – | 5.166 and 5.523 | –
56 | c1ccc(-c2nc(CN3CCCC3Cn3cncn3)no2)cc1 (stereo not drawn) | – | – | – | > 10
57 | O=C(NCCN1CCOCC1)N(CCCO)C1CCCc2ccccc21 (stereo not drawn) | – | – | – | > 10
58 | c1ccc(O[C@H]2COCCN(Cc3c[nH]c4ccccc34)C2)cc1 | – | – | 5.37 | 6.98
59 | Cc1cc(C)n(CC2CCCN2C(=O)CCc2ccco2)n1 (stereo not drawn) | – | – | – | > 10
60 | Cc1csc(Nc2nccnc2C2CCCN2S(C)(=O)=O)n1 (stereo not drawn) | – | – | – | > 10
61 | CCc1c(C)nc2cc(-c3nccn3C)nn2c1N1CCCC(CO)C1 (stereo not drawn) | – | – | 5.187 | 5.95
62 | Fc1ccc(N2CCCN(Cc3ccc(-c4cc[nH]n4)o3)CC2)cc1 | – | – | 5.26 | 6.44
63 | CCc1nc(N)nc(N2CCCC3(CCN(C)CC3)CC2)c1C | – | – | – | > 10
64 | CCOc1ccc2nc(NC(=O)c3c(C(=O)O)cnn3C)sc2c1 | – | – | 5.956 | 1.47
65 | O=C1CC(c2ccc3ccccc3n2)c2c(n[nH]c2C2CCC2)N1 (stereo not drawn) | – | – | – | > 10
66 | CSc1ccc(NCc2csc(C)n2)cc1F | – | – | 5.126 | 5.53
67 | Cc1ccccc1CNC(=O)Cn1nc(-c2ccc(F)cc2)oc1=O | – | – | – | > 10
68 | CC(C)C(C(=O)N1CCCN(Cc2nccn2C)CC1)N1CCCC1 (stereo not drawn) | – | – | – | > 10
69 | CC(C(=O)N1CCCN(Cc2cnn(C)c2)CC1)n1ccnc1 (stereo not drawn) | – | – | – | > 10
70 | Cc1cc(N(Cc2cccs2)C2CC2)n2nc(C(F)(F)F)nc2n1 | – | – | 6.155 and 6.458 | –
71 | Cc1csc(CCCNC(=O)NC2CC(=O)N(C(C)(C)C)C2)n1 (stereo not drawn) | – | – | – | > 10
72 | COc1c(CNCC(O)COc2ccc3c(c2)OCO3)c(C)nn1C (stereo not drawn) | – | – | – | > 10
73 | CC(C)c1cc(CSCCC(=O)O)no1 | – | – | 5.282 | 3.09
74 | Cc1nn(C)c2nc(N3CCCCC3c3cccnc3)sc12 (stereo not drawn) | – | – | 6.07 | 1.24
75 | c1ccc(-c2nnc(N3CCCC4(CCOC4)C3)s2)cc1 (stereo not drawn) | – | – | 5.105 | > 10
76 | CC(=O)NC(C)c1ccc(OCC2CC2)c(F)c1 (stereo not drawn) | – | – | 5.914 | 1.47
